From the supplement of paper PMC10307832

Tests used:
Assay in all cases: relative viability (nuclei count vs DMSO), 5 days (fraction); higher = more cells survive
[1] = compound: NCC(=O)Nc1ccc(-n2nc(C(F)(F)F)cc2-c2ccc3c(ccc4ccccc43)c2)cc1 + C[C@@H](Oc1cc(-c2cnn(C3CCNCC3)c2)cnc1N)c1c(Cl)ccc(F)c1Cl [Crizotinib] (partner 1 µM)
Procedure, shortened: (§1)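 A single step with final 0.05% Triton X-100, 1% formaldehyde and 1 ug/ml Hoechst fixed the cells and stained nuclei 5 days after treatment. Lung cancer cell lines in 1536-well plates had been treated by pin tool the day after seeding with one drug alone or a fixed anchor-drug dose plus five library-drug doses (not always all listed) in √10 steps, and nuclei were counted on 4× images. Relative viability is the ratio of nuclei in treated wells to nuclei in vehicle wells, taken as the median of duplicate plates.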

kb NB 142-70 + Foretinib = compound: C1CSC2=C(C(=O)N1)SC3=C2C=C(C=C3)O [kb NB 142-70] + COc1cc2c(Oc3ccc(NC(=O)C4(C(=O)Nc5ccc(F)cc5)CC4)cc3F)ccnc2cc1OCCCN1CCOCC1 [Foretinib] (partner 0.25 µM)
Procedure, shortened: as §1

[2] = compound: C1CSC2=C(C(=O)N1)SC3=C2C=C(C=C3)O [kb NB 142-70] + O=C(CCCCCCC(=O)Nc1ccccc1)NO [Vorinostat] (partner 1 µM)
Procedure, shortened: as §1

[3] = compound: C1CSC2=C(C(=O)N1)SC3=C2C=C(C=C3)O [kb NB 142-70] + CCNC(=O)c1noc(-c2cc(C(C)C)c(O)cc2O)c1-c1ccc(CN2CCOCC2)cc1 [Luminespib] (partner 0.01 µM)
Procedure, shortened: as §1

kb NB 142-70 + Alpelisib = compound: C1CSC2=C(C(=O)N1)SC3=C2C=C(C=C3)O [kb NB 142-70] + Cc1nc(NC(=O)N2CCC[C@H]2C(N)=O)sc1-c1ccnc(C(C)(C)C(F)(F)F)c1 [Alpelisib] (partner 2 µM)
Procedure, shortened: as §1

With UMC-11 the relative viability ([1]; first compound 0.02 µM) was 0.728, the relative viability ([1]; first compound 0.06325 µM) was 0.638 and the relative viability ([1]; first compound 0.2 µM) was 0.622. For the same cell line, the relative viability ([1]; first compound 0.6325 µM) was 0.604, the relative viability ([1]; first compound 2 µM) was 0.567 and the relative viability (kb NB 142-70 + Foretinib; first compound 0.1 µM) was 0.934. It also gave a relative viability (kb NB 142-70 + Foretinib; first compound 1 µM) of 0.92, a relative viability (kb NB 142-70 + Foretinib; first compound 3.162 µM) of 0.64 and a relative viability ([2]; first compound 0.1 µM) of 0.39. It also gave a relative viability ([2]; first compound 1 µM) of 0.316, a relative viability ([2]; first compound 3.162 µM) of 0.223 and a relative viability ([3]; first compound 0.1 µM) of 1.02. For the same cell line, the relative viability ([3]; first compound 1 µM) was 0.908, the relative viability ([3]; first compound 3.162 µM) was 0.494 and the relative viability (kb NB 142-70 + Alpelisib; first compound 0.1 µM) was 0.96. For the same cell line, the relative viability (kb NB 142-70 + Alpelisib; first compound 1 µM) was 0.959 and the relative viability (kb NB 142-70 + Alpelisib; first compound 3.162 µM) was 0.418.
